# According to patent US5082772A, “Process for preparing deacetylcephalosporin C” (priority 1988, dated 1992):
# Values joined by “and” are separate entries in the source; they are usually repeats but may differ in a detail not shown here. Equal values may be shown once. Read-outs that look alike come from different tables or passages of the source.
# Experiments:
# Format in all cases: biochemical
# DAOC synthase [1] = biological target: T1, DAOC synthase (Streptomyces clavuligerus, UniProt P18548); assay: Cofactor and metal ion requirement and stimulation of DAOC synthase activity
# T1 sequence (P18548 whole entry): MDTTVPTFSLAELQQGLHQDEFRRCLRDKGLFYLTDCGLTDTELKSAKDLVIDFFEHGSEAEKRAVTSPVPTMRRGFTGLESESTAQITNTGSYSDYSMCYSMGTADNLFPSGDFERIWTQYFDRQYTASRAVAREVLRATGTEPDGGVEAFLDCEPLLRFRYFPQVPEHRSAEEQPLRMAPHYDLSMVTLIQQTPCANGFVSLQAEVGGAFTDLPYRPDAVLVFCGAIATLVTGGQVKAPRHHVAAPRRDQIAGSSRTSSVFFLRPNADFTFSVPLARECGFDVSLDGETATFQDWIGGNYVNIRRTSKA
# Description: (§1) The enzymatic reaction was initiated by addition of penicillin N and was conducted for 15 min at 36° C. The synthase activity was determined by monitoring DAOC formation at 260 nm with HPLC as described by Dotzlaf, J. E., and Yeh, W. K (1987), J. Bacteriol 169, 1611-1618.
# purified synthase [2] = biological target: T2, purified synthase (Streptomyces clavuligerus, UniProt P18548); assay: Hydroxylase activity (conversion to DAC)
# T2 sequence (P18548 whole entry): as above
# DAOC synthase [3] = biological target: T1, DAOC synthase; assay: DAOC synthase activity assay: effect of metal chelators, sulfhydryl reagents and other inhibitors
# Description: ^1 Enzymatic reactions were conducted in the presence of […]
# FeSO4 and 0.1 mM DTT. The enzyme was incubated with the indicated
# inhibitor for 1 min prior to the initiation of the reaction with
# as §1
# DAOC synthase [4] = biological target: T1, DAOC synthase; assay: Substrate specificity of DAOC synthase (HPLC detection); settings: optimum conditions for converting penicillin N to DAOC; HPLC detectable
# purified synthase [5] = biological target: T2, purified synthase; assay: Stoichiometric analysis of conversion of penicillin N to DAOC; settings: over 60 min of the reaction
# Description: In the conversion of penicillin N to DAOC by the purified synthase provided herein, the molar ratio for DAOC formation/penicillin N disappearance over 60 min of the reaction remained in the range of 0.90-0.98 as shown in FIG. 5. The conversion of penicillin N to DAOC was 94% complete under the reaction conditions.
# native synthase = biological target: T3, native synthase (Streptomyces clavuligerus, UniProt P18548); assay: Kinetics of native synthase, partially purified (Mono Q eluate); settings: native partially purified enzyme; Tris-HCl buffer, 36° C.
# T3 construct: native synthase, evaluated with the partially purified enzyme; endogenous in cells; host or cells: Streptomyces clavuligerus cells, crude extract, three-step purification (Mono Q eluate)
# T3 sequence (P18548 whole entry): as above
# [6] = biological target: T4, recombinantly produced DAOC synthase (Streptomyces clavuligerus, UniProt P18548); assay: Kinetics of recombinant enzyme (Lineweaver-Burk); settings: pH 7.0, 50 mM HEPES buffer, 36° C.
# T4 construct: made in house; host or cells: Escherichia coli K12 JM109 (plasmid pOW382)
# T4 sequence (P18548 whole entry): as above
# Description: The kinetics of the native enzyme and recombinant enzyme were determined under the optimal reaction conditions for the enzyme, i.e., at pH 7.0 in 50 mM HEPES buffer at 36° C.
# [7] = metal ions: order Zn2+ > Co2+ > Ni2+
# [8] = additive 0.1 mM, 0.06 mN FeSO4, 0.1 mM DTT, 1 min incubation with inhibitor before penicillin N
# [9] = additive 1.0 mM, 0.06 mN FeSO4, 0.1 mM DTT, 1 min incubation with inhibitor before penicillin N
structure (smiles),measurement,setting,value
[Mg] [magnesium],replacement of ferrous ion for expression of enzyme activity,DAOC synthase [1],could not be replaced
"C=C1CS[C@@H]2[C@H](NC(=O)CCCC(N)C(=O)O)C(=O)N2C1C(=O)O (stereo partly drawn) [3-exomethylenecephalosporin C, 7β-(α-aminoadipamido)-3-exomethylenecepham-4-carboxylic acid]",conversion to DAC by the purified synthase,purified synthase [2],possesses the ability to convert 3-exomethylenecephalosporin C to DAC
same,inhibition of DAOC synthase activity (in words),DAOC synthase [3]; [7],strong inhibitor
CC1(C)S[C@@H]2[C@H](NC(=O)[C@H](N)c3ccccc3)C(=O)N2[C@H]1C(=O)O [ampicillin],synthase activity with the compound as substrate,DAOC synthase [4],No synthase activity was observed
CC1(C)S[C@@H]2[C@H](NC(=O)COc3ccccc3)C(=O)N2[C@H]1C(=O)O [penicillin V],synthase activity with the compound as substrate,DAOC synthase [4],No synthase activity was observed
"O=C(O)CN(CCN(CC(=O)O)CC(=O)O)CC(=O)O [EDTA, ethylenediamine tetraacetic acid]",inhibition of DAOC synthase activity (in words),DAOC synthase [3],highly sensitive to inhibition
CC1(C)S[C@@H]2[C@H](NC(=O)CCC[C@@H](N)C(=O)O)C(=O)N2[C@H]1C(=O)O [penicillin N],molar ratio for DAOC formation/penicillin N disappearance,purified synthase [5],0.90-0.98
"CC1=C(C(=O)O)N2C(=O)[C@@H](NC(=O)CCC[C@@H](N)C(=O)O)[C@H]2SC1 [DAOC, deacetoxycephalosporin C]",conversion to DAC by the purified synthase,purified synthase [2],lacks the hydroxylase activity for converting DAOC to DAC
[Na+] [sodium],replacement of ferrous ion for expression of enzyme activity,DAOC synthase [1],could not be replaced
CC1(C)S[C@@H]2[C@H](NC(=O)CCC[C@H](N)C(=O)O)C(=O)N2[C@H]1C(=O)O [isopenicillin N],synthase activity with the compound as substrate,DAOC synthase [4],No synthase activity was observed
"O=C(O)c1cc[c]([Hg+])cc1.[OH-] [p-HMB, p-hydroxymercuribenzoate]",Relative Activity (%),DAOC synthase [3]; [8],0%
same,Relative Activity (%),DAOC synthase [3]; [9],0%
same,inhibition of DAOC synthase activity (in words),DAOC synthase [3]; [7],highly susceptible to inhibition
"CCN1C(=O)C=CC1=O [NEM, N-ethylmaleimide]",Relative Activity (%),DAOC synthase [3]; [8],55%
same,Relative Activity (%),DAOC synthase [3]; [9],0%
same,inhibition of DAOC synthase activity (in words),DAOC synthase [3]; [7],highly susceptible to inhibition
"O=C(O)CI [Iodoacetic acid, iodoacetic acid]",Relative Activity (%),DAOC synthase [3],100% and 65%
same,inhibition of DAOC synthase activity (in words),DAOC synthase [3],slightly inhibited
[Zn+2] [zinc],inhibition of DAOC synthase activity (in words),DAOC synthase [3]; [7],inhibited
same,replacement of ferrous ion for expression of enzyme activity,DAOC synthase [1],could not be replaced
[Cu+] [cuprous],replacement of ferrous ion for expression of enzyme activity,DAOC synthase [1],could not be replaced
CC1(C)S[C@@H]2[C@H](NC(=O)Cc3ccccc3)C(=O)N2[C@H]1C(=O)O [penicillin G],synthase activity with the compound as substrate,DAOC synthase [4],No synthase activity was observed
"Nc1ncnc2c1ncn2[C@@H]1O[C@H](COP(=O)(O)OP(=O)(O)OP(=O)(O)O)[C@@H](O)[C@H]1O [ATP, adenosine triphosphate]",stimulation of DAOC synthase activity,DAOC synthase [1],No detectable stimulation
[Ca] [calcium],replacement of ferrous ion for expression of enzyme activity,DAOC synthase [1],could not be replaced
[Ni+2] [nickel],inhibition of DAOC synthase activity (in words),DAOC synthase [3]; [7],inhibited
same,replacement of ferrous ion for expression of enzyme activity,DAOC synthase [1],could not be replaced
CC1(C)S[C@@H]2[C@H](N)C(=O)N2[C@H]1C(=O)O [6-aminopenicillanic acid],synthase activity with the compound as substrate,DAOC synthase [4],No synthase activity was observed
"O[C@H](CS)[C@H](O)CS (racemic) [DTT, dithiothreitol]",restoration of synthase activity after DTNB inactivation,"DAOC synthase [3]; 2 mM DTT added, 30 min",fully restored
same,stimulation of DAOC synthase activity,DAOC synthase [1],stimulated
[Mn+2] [manganous],replacement of ferrous ion for expression of enzyme activity,DAOC synthase [1],could not be replaced
[Fe+3] [Ferric ion],replacement of ferrous ion for expression of enzyme activity,"DAOC synthase [1]; in the presence of DTT and ascorbate, enzyme slightly less active",can substitute for ferrous ion
"c1cnc2c(c1)ccc1cccnc12 [o-Phenanthroline, 1,10-phenanthroline]",Relative Activity (%),"DAOC synthase [3]; additive 0.02 mM, 0.06 mN FeSO4, 0.1 mM DTT, 1 min incubation with inhibitor before penicillin N",63%
same,Relative Activity (%),"DAOC synthase [3]; additive 0.2 mM, 0.06 mN FeSO4, 0.1 mM DTT, 1 min incubation with inhibitor before penicillin N",0%
same,inhibition of DAOC synthase activity (in words),DAOC synthase [3]; [7],highly sensitive to inhibition
[Fe+2] [ferrous ion],Ka,native synthase,4 µM
same,Ka,[6],8 µM
same,requirement for expression of catalytic activity,DAOC synthase [1],requires
[K+] [potassium],replacement of ferrous ion for expression of enzyme activity,DAOC synthase [1],could not be replaced
[Co+2] [cobaltous],inhibition of DAOC synthase activity (in words),DAOC synthase [3]; [7],inhibited
same,replacement of ferrous ion for expression of enzyme activity,DAOC synthase [1],could not be replaced
"O=C(O)c1cc(SSc2ccc([N+](=O)[O-])c(C(=O)O)c2)ccc1[N+](=O)[O-] [DTNB, 5,5'-dithiobis-2-nitrobenzoic acid]",inactivation of the enzyme,"DAOC synthase [3]; 0.2 mM DTNB, 0.5 min, 4° C.",complete inactivation
same,Relative Activity (%),DAOC synthase [3]; [8],70%
same,Relative Activity (%),DAOC synthase [3]; [9],0%
same,inhibition of DAOC synthase activity (in words),DAOC synthase [3]; [7],highly susceptible to inhibition
O=O [oxygen],requirement for expression of catalytic activity,DAOC synthase [1],requires
